Experimental data as given in patent US8916604B2, “Compositions and methods for epigenetic modification of nucleic acid sequences” (Rutgers, The State University of New Jersey, priority 2011, dated 2014).

Columns and labels:
[1] = system: first five CpGs of the Nrf2 gene promoter; assay: Bisulfite genomic sequencing of TRAMP prostate tissues; type: in vivo, mouse; details: control 98% methylation
Experimental: Genomic DNA was isolated from the control or DIM treated TRAMP C1 cells and TRAMP dorso-lateral prostate tissues collected from control and DIM treated groups pooled and homogenized using the DNeasy tissue kit (Qiagen, Valencia, Calif., U.S.A.). The genomic DNAs were extracted and subjected to bisulfite conversion carried out using 750 ng of genomic DNA and applying to EZ DNA Methylation Gold Kits (Zymo Research Corp., Orange, Calif., U.S.A.) following the manufacturer's instructions. The converted DNA was amplified by PCR utilizing Platinum PCR SuperMix (Invitrogen, Grand Island, N.Y., U.S.A.) with a set of specific primers, forward: 5′-AGTTATGAAGTAGTAGTAAAAA-3′ (SEQ ID NO: 37) and reverse: 5′-AATATAATCTCATAAAACCCCAC-3 (SEQ ID NO: 38), amplifying the first five CpGs located between −1266 and −1086 of the promoter region of Nrf2 with the translation initiation site defined as +1 (14, 20). Gel extraction using Qiaquick™ gel extraction kit (Qiagen, Valencia, Calif., U.S.A.) were used to purify the PCR products, then cloned into pCR4 TOPO vector using a TOPO™ TA Cloning kit (Invitrogen, Grand Island, N.Y., U.S.A.), Plasmids DNA from at least twenty colonies per for treatment were prepared using QIAprep Spin Miniprep Kit (Qiagen, Valencia Calif., U.S.A.) and sequenced (Genwiz, Piscataway, N.J., U.S.A.).

[2] = system: first 5 CpGs of Nrf2 gene promoter; assay: Methylated DNA immunoprecipitation (MeDIP) in TRAMP C1 cells; type: cell-based, mouse
Experimental: The DIM used in the study contains approximately 98% of DIM purchased from Sigma-Aldrich t St. Louis, Mo., USA), TRAMP C1 cells (provided by Dr. Barbara Foster, Department of Pharmacology and Therapeutics, Roswell Park Cancer institute, Buffalo. NY), originally derived from TRAMP prostate tumor, were cultured in Dulbecco's Modified Eagle's Medium (Invitrogen Corp., Carlsbad, Calif. U.S.A.) supplemented with 10% (V/V) fetal bovine serum (FBS) (Invitrogen Corp., Grand Island, N.Y., U.S.A.), penicillin 100 U/ml, and streptomycin 100 μg/ml (Invitrogen Corp., Grand Island, N.Y., U.S.A.), Cells were maintained in a humidified incubator with 5% CO2 at 37° C. Cells were seeded in 10 cm plates for 24 h and then treated with 0.1% DMSO (control) or different concentrations of DIM in 1% FBS containing medium for 5 days. The medium was changed every 2 days (20),
Genomic DNA (8 μg each) extracted from control and DIM treated TRAMP C1 cells were used for the MeDIP analysis, analogous to other chromatin immuno-precipitation (ChIP) analysis. The DNAs were adjusted to 150 μl using TE buffer in DNA. LoBind tubes. DNAs were fragmented by sonication on ice-water using a Bioruptor sonicator (Diagnode Inc., Sparta, N.J., U.S.A.) and the size of sheared DNA fragment (around 300 to 500 bp) was checked by gel electrophoresis. […]

[3] = Overall health and toxicity of TRAMP mice on DIM diet; type: in vivo
Experimental: DIM was obtained from Sigma-Aldrich (St. Louis, Mo., U.S.A.). MN-76A diets containing 1% DIM were prepared by Research Diets Inc. (New Brunswick, N.J., U.S.A.) and stored at −20° C. The dose was chosen based in part on studies reported previously Anderton et al., Drug Metab Dispos. 2004; 32: 632-8; and Xue et al., J Nutr Biochem. 2008; 19: 336-44). In our present study, 1% DIM was well-tolerated with these TRAMP mice. The control TRAMP males (n=19) received A1N-76A diets throughout the experiment while the treated TRAMP males received 1% DIM diet starting from eight weeks of age (n=9) as Group 1 (D-G1) and Group 2 (D-G2) starting from twelve weeks of age (n=8) (FIG. 12A). Fresh diets were added to the cages twice weekly.
TRAMP males were weighed weekly and the overall health of the animals was monitored on a regular basis. All mice were sacrificed at the age of 24 weeks by carbon dioxide euthanasia and the genitourinary apparatus (GU) consisting of the seminal vesicles, prostate, and bladder were isolated for further analyses (FIG. 12B).
The overall health of all the mice was monitored during the study period and found to be in good health. All mice were weighed and checked weekly during the course of this study.

SMILES: c1ccc2c(Cc3c[nH]c4ccccc34)c[nH]c2c1 [DIM, 3,3′-diindolylmethane]
- methylation of the first five CpGs of Nrf2 promoter ([1]; D-G1): 37.6%
- methylation of the first five CpGs of Nrf2 promoter ([1]; D-G2): 54.4%
- methylated DNA bound by anti-mecyt antibody [2]: reduced
- weights of liver, kidney and spleen ([3]; 1% DIM diet, at sacrifice): no significant change
- body weights ([3]; 1% DIM diet, throughout the study period): No significant change
- signs of toxicity ([3]; mouse, in vivo): no specific observable sign of toxicity
- tolerability ([3]; mouse, in vivo): well-tolerated
